Data reported in patent US10745400B2, “Inhibition of BMP signaling, compounds, compositions and uses thereof” (Vanderbilt University, priority 2018, dated 2020).
Residue numbers refer to the chain shown, from its start. Like-named read-outs stand apart in the source and are kept apart here.

What was measured:
[1] = Protein binding, mouse; type: in vitro ADME
[2] = Intrinsic clearance, mouse; type: in vitro ADME; conditions: mouse
[3] = target: T1, ALK2/ACVR1 (Homo sapiens, UniProt Q04771); assay: Kinase assay (33P-ATP filter-binding), ALK2; type: biochemical
T1 sequence (Q04771 21-509): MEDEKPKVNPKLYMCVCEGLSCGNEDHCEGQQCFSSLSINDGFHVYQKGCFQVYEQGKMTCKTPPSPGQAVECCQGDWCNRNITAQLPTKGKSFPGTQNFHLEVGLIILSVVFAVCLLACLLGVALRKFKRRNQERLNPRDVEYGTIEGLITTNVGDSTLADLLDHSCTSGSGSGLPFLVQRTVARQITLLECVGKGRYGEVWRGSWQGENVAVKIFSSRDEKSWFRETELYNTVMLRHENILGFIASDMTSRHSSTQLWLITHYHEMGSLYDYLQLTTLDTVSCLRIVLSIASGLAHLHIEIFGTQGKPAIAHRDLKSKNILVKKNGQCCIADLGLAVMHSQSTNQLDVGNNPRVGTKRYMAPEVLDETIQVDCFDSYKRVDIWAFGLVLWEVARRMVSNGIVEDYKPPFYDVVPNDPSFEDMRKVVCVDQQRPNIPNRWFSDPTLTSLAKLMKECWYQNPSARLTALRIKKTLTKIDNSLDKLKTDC
Procedure: (§1) The kinase assays were carried out briefly as follows. Substrate was prepared in Base Reaction Buffer (20 mM Hepes (pH 7.5), 10 mM MgCl2, 1 mM EGTA, 0.02% Brij35, 0.02 mg/ml BSA, 0.1 mM Na3VO4, 2 mM DTT, 1% DMSO). The indicated kinases was delivered into the substrate solution and allowed to gently mix. Next, the specific compound was delivered in DMSO into the kinase mixture by Acoustic technology (Echo550; nanoliter range), and allowed to incubate for 20 minutes at room temperature. Next, ^33P-ATP was delivered into the reaction mixture to initiate the reaction and allowed to incubate at room temperature. After 2 hours, the reactions were spotted onto P81 ion exchange paper and the kinase activity is detected by the filter-binding method.

[4] = target: T2, ALK2 (Q207D) (Homo sapiens, UniProt Q04771, Q207D); assay: Kinase assay (33P-ATP filter-binding), ALK2 Q207D; type: biochemical; conditions: Q207D mutant, 20 mM; read-out: Kinase Selectivity ALK2 (Q207D, 20 mM)
T2 sequence (Q04771 21-509 Q207D): T1 sequence (Q04771 21-509) with Q187D
Procedure: as §1

[5] = target: T3, ALK2 (R206H) (Homo sapiens, UniProt Q04771, R206H); assay: Kinase assay (33P-ATP filter-binding), ALK2 R206H; type: biochemical; conditions: R206H mutant, 20 mM; read-out: Kinase Selectivity ALK2 (R206H, 20 mM)
T3 sequence (Q04771 21-509 R206H): T1 sequence (Q04771 21-509) with R186H
Procedure: as §1

[6] = target: ALK3/BMPR1A (Homo sapiens, UniProt P36894); assay: Kinase assay (33P-ATP filter-binding), ALK3; type: biochemical
Procedure: as §1

[7] = Intrinsic clearance, human; type: in vitro ADME; conditions: human
[8] = target: ALK1/ACVRL1 (Homo sapiens, UniProt P37023); assay: Kinase assay (33P-ATP filter-binding), ALK1; type: biochemical
Procedure: as §1

[9] = Protein binding, human; type: in vitro ADME
[10] = CL-Hep, value in parentheses, read-out: Intrinsic Clearance Mouse (CL-Hep)
[11] = read-out: Intrinsic Clearance Mouse
[12] = 20 mM, read-out: Kinase Selectivity ALK2/ACVR1 (20 mM)
[13] = 1 mM, read-out: Kinase Selectivity ALK3/BMPR1A (1 mM)
[14] = CL-Hep, value in parentheses, read-out: Intrinsic Clearance Human (CL-Hep)
[15] = read-out: Intrinsic Clearance Human
[16] = read-out: Kinase Selectivity ALK1/ACVRL1

ALK3/BMPR1A, sequence (P36894 24-532): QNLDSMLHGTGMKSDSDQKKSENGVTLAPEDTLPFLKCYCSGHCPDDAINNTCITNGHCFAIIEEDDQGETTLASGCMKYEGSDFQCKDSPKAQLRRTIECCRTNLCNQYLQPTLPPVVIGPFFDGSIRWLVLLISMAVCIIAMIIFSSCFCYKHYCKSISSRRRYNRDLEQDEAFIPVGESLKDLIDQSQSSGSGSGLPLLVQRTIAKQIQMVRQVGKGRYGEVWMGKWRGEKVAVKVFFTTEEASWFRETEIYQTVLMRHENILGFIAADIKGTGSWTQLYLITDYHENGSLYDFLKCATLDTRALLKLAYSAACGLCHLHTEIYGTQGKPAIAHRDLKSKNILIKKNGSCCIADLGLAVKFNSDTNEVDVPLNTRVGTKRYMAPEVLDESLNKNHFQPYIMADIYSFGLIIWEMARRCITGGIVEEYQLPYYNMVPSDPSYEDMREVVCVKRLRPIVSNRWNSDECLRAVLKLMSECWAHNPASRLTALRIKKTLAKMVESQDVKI
ALK1/ACVRL1, sequence (P37023 22-503): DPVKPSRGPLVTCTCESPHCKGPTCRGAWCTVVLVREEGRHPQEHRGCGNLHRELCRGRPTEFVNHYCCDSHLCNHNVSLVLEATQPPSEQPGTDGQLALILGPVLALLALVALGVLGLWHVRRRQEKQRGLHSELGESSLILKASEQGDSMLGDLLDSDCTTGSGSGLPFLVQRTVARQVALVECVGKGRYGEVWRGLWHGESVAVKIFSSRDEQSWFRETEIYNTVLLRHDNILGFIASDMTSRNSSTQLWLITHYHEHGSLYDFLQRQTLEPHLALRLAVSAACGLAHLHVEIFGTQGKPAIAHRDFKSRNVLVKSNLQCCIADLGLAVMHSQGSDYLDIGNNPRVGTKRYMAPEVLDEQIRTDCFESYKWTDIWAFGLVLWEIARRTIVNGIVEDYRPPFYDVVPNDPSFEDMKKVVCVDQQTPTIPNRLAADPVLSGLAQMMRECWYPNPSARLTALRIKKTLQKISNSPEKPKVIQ

SMILES	Protein Binding (% Free) Mouse [1] [% Free]	CLint scaled [2, 10] [mL/min/kg]	CLint scaled [2, 11] [mL/min/kg]	IC50 [3, 12] [nM]	IC50 [4] [nM]	IC50 [5] [nM]	IC50 [6, 13] [nM]	CLint scaled [7, 14] [mL/min/kg]	CLint scaled [7, 15] [mL/min/kg]	IC50 [8, 16] [nM]	Protein Binding (% Free) Human [9] [% Free]	IC50 [3] [nM]	IC50 [6] [nM]	IC50 ([8]; Kinase Selectivity ALK1/ACVRL1) [nM]
c1cc(-c2cnc3cc(-c4ccc(C5CNCCN5)cc4)ccn23)ccn1 (stereo not drawn) [Compound 30]				68.8	35	96.7	55.1			447				
Cc1cc(-c2cnc3cc(-c4ccc(N5CCC6(CCCCN6)CC5)cc4)ccn23)c2cc(F)cc(F)c2n1 [Compound 25]	0.55	97.8	198	55.5	170	258	54.7	14	46.3	777	1.43			
Cc1cc(-c2cnc3cc(-c4ccc(N5CCC6(CCCNC6)CC5)cc4)ccn23)c2cc(F)cc(F)c2n1 [Compound 3]				1090	999	1120	332			10300				
Cc1cc(-c2cnc3cc(-c4ccc(N5CCC6(CCNC6)CC5)cc4)ccn23)c2cc(F)cc(F)c2n1 [Compound 7]				770	745	1070	434			5950				
Cc1cc(-c2cnc3cc(-c4ccc(N5CCC6(CCNCC6)C5)cc4)ccn23)c2cc(F)cc(F)c2n1 [Compound 5]				2370	1740	2510	1330			35300				
c1cnc2scc(-c3cnc4cc(-c5ccc(C6CNCCN6)cc5)ccn34)c2c1 (stereo not drawn) [Compound 31]	6.8	33.6	53.5	20.1	< 5.1	20.6	21.2	< 11	< 23.1	30.7	16.2			
O=S(=O)(F)Oc1ccc(-c2cnc3cc(-c4ccc(N5CCOCC5)cc4)ccn23)c2ccccc12 [Compound 38]					10300	15000						> 30000	23100	> 30000
Cc1cc(-c2cnc3cc(N4CC5(CCNCC5)C4)ccn23)c2cc(F)cc(F)c2n1 [Compound 24]	1.08	< 32.9	< 49.5	57.8	129	58.3	5.2	14	46.3	1250	0.75			
c1ncc2scc(-c3cnc4cc(-c5ccc(C6CNCCN6)cc5)ccn34)c2n1 (stereo not drawn) [Compound 35]				157	65.8	214	9450			14200				
Cc1cc(-c2cnc3cc(-c4ccc(C5COC(C)CN5)cc4)ccn23)c2cc(F)ccc2n1 (stereo not drawn) [Compound 15]	1.01	38.1	66.3	< 5.1	< 5.1	< 5.1	< 5.1	15.7	74	34.1	1.26			
Cc1cc(-c2cnc3cc(-c4ccc(C5COC(C)CN5)cc4)ccn23)c2ccccc2n1 (stereo not drawn) [Compound 14]	1.6	50.3	114	< 5.1	< 5.1	< 5.1	< 5.1	16.5	93	< 5.1	0.76			
Cc1cc(-c2cnc3cc(-c4ccc(N5CCCC6(CCCN6)C5)cc4)ccn23)c2cc(F)cc(F)c2n1 (stereo not drawn) [Compound 2]				147	114	128	45			936				
Cc1cc(-c2cnc3cc(-c4ccc(N5CCC6(CCCNC6)C5)cc4)ccn23)c2cc(F)cc(F)c2n1 (stereo not drawn) [Compound 6]				171	200	218	19.9			3460				
Cc1cc(-c2cnc3cc(-c4ccc(N5CCC6(CCC6)CC5)cc4)ccn23)c2cc(F)cc(F)c2n1 [Compound 9]				> 50000	> 50000	> 50000	40900			> 50000				

More lines, main results first:

Protein Binding (% Free) Mouse [1] [% Free]	CLint scaled [2, 10] [mL/min/kg]	CLint scaled [2, 11] [mL/min/kg]	IC50 [3, 12] [nM]	IC50 [4] [nM]	IC50 [5] [nM]	IC50 [6, 13] [nM]	CLint scaled [7, 14] [mL/min/kg]	CLint scaled [7, 15] [mL/min/kg]	IC50 [8, 16] [nM]	Protein Binding (% Free) Human [9] [% Free]	SMILES	IC50 [3] [nM]	IC50 [6] [nM]	IC50 ([8]; Kinase Selectivity ALK1/ACVRL1) [nM]
2.3	< 32.9	< 49.5	< 5.1	< 5.1	< 5.1	< 5.1	16.6	97.2	16	1.85	Cc1cc(-c2cnc3cc(-c4ccc(C5COCCCN5)cc4)ccn23)c2cc(F)cc(F)c2n1 (stereo not drawn) [Compound 13]			
			> 50000	> 50000	> 50000	43700			> 50000		Cc1cc(-c2cnc3cc(-c4ccc(N5CCC6(CCC6)C5)cc4)ccn23)c2cc(F)cc(F)c2n1 [Compound 8]			
1.91	47.6	101	< 5.1	< 5.1	< 5.1	< 5.1	17.4	139	< 5.1	2.39	Cc1cc(-c2cnc3cc(-c4ccc(C5COCCCN5)cc4)ccn23)c2cc(F)ccc2n1 (stereo not drawn) [Compound 10]			
6.24						< 5.1	17.5		< 5.1	3.05	Cc1cc(-c2cnc3cc(-c4ccc(C5COCCN5)cc4)ccn23)c2ccccc2n1 (stereo not drawn) [Compound 21]			
3.23						< 5.1	17.4		23.5	1.52	Cc1cc(-c2cnc3cc(-c4ccc(C5COCCN5)cc4)ccn23)c2cc(F)ccc2n1 (stereo not drawn) [Compound 11]			
			54.2	68.1	60.9	28.5			880		Cc1cc(-c2cnc3cc(-c4ccc(C5C[C@@H](C)N[C@@H](C)C5)cc4)ccn23)c2cc(F)cc(F)c2n1 (stereo partly drawn) [Compound 1]			
			29	24	25.5	2.52			386		Cc1cc(-c2cnc3cc(-c4ccc(N5CCNC6(CCC6)C5)cc4)ccn23)c2cc(F)cc(F)c2n1 [Compound 4]			
